The numbers were not newly measured in patent US20040170996A1, “Cytotoxic T-Lymphocyte antigen-4 or interleukin-10 polymorphisms as predictors of response to therapeutic intervention” (priority 2001, published 2004), which cites them from elsewhere.

Molecules are shown by their SMILES.

The test system of the data set is interleukin-10 production. The conditions noted are these: several in vitro studies.

Turning to `NC(=O)c1ncn([C@@H]2O[C@H](CO)[C@@H](O)[C@H]2O)n1` [Ribavirin, ribavirin], the “Effect on interleukin-10 production” value is “downregulate interleukin-10 production”.
